# Measurements from patent US20120107916A1, “METHODS AND COMPOSITIONS FOR AFFECTING THE DIFFERENTIATION OF CLOSTRIDIA IN CULTURE” (priority 2009, published 2012).
# Assays:
# [1] = system: C. beijerinckii NCIMB 8052; experiment: Ceric ion reactive compounds (total alcohols) in culture broths, colorimetric ceric ammonium nitrate assay; assay type: cell-based, Clostridium beijerinckii; conditions: 50 nM peptide; for Optical density of ceric ion reactive compounds measured at 500 nm: transfer 3, 96 h, 30° C.
# Protocol: (§1) Bacterial strains and media. Clostridium acetobutylicum ATCC 824 and C. beijerinckii NCIMB 8052 are available from several commercial microbial culture collections including the American Type Culture Collection (ATCC), Manassas, Va., USA. The strains were grown at 30° C. or 37° C. in YE broth, which contained, per liter: 5.0 g yeast extract, 2.5 g casamino acids, 1.0 g L-asparagine, 0.5 g cysteine.HCl, 56 mg K2HPO4, 56 mg KH2PO4, 82 mg anhydrous MgSO4, 8 mg FeSO4.H2O, 6 mg MnSO4.H2O and 10 g glucose. Alternatively, strains were grown in YEPG broth, which was identical to YE expect that K2HPO4 and KH2PO4 were increased to 145 mg/L each and glucose was increased to 60 g/L. The pH of the media was adjusted to 7.2 using 45% KOH prior to sterilization by autoclaving. Media were solidified by addition of 1.5% Bacteriological Agar, Actimedia Manufacturers, Inc., Lansing, Mich. All cultures were grown in anaerobic conditions using the AnaeroPack System, Mitsubishi Gas Chemical Co., Inc., Japan, and GasPak EZ Gas Generating Sachets, Becton, Dickinson and Co., Sparks, Md. Spore stocks were kept at room temperature on agar-solidified media and were activated by suspending spores in 0.5 mL to 1.0 mL of medium followed by heating for 10 min at 80° C. before inoculation into growth medium.
# Analysis of solvents. Total alcohols in cell-free culture supernatants were measured using a modification of a colorimetric method based on ceric ammonium nitrate (Reid and Truelove, 1952). […] The sample was mixed by inverting the cuvette six times then exactly two minutes later the optical density at 500 nm wavelength was measured. The concentration of total alcohols was determined by comparison with a standard curve prepared by using butanol diluted in distilled water.
# Effect of peptide SEQ ID NO:145 addition on sequential batch cultures of C. beijerinckii NCIMB 8052 grown at 30° C. […] Each culture was stopped after 96 hours of incubation and optical density, pH and ceric ion reactive chemicals were measured. […]
# [2] = system: C. beijerinckii NCIMB 8052; experiment: Growth (optical density at 600 nm) of sequential batch cultures; assay type: cell-based, Clostridium beijerinckii
# Protocol: as §1
# Growth and pH measurements. Growth of bacterial cultures was measured spectrophotometrically using optical density at 600 nm and pH of cell-free culture supernatants was measured using a hand-held Shindengen ISFET pH Meter KS501, Shendengen Electric Manufacturing Co., Ltd., Bannockburn, Ill.
# Effect of peptide SEQ ID NO:145 addition on sequential batch cultures of C. beijerinckii NCIMB 8052 grown at 30° C. Spores of C. beijerinckii NCIMB 8052 were germinated and grown overnight at 30° C. under anaerobic conditions in YEPG medium. After about 24 h of growth, […] of the culture was transferred (transfer 1) to each of four flasks that contained 10 mL of YEPG and either had no treatment or were treated with peptide SEQ ID NO:145 (see Table 8) at 1 nM, 10 nM or 50 nM. Thereafter, 75 μL of each culture was transferred, at the same time, every 24-48 h to 10 mL of fresh YEPG that contained the same peptide treatment or no treatment. Each culture was stopped after 96 hours of incubation and optical density, pH and ceric ion reactive chemicals were measured. Sequential batch culturing was continued through 6 transfers at which point all cultures appeared to be growing to the same extent (Table 12 and FIG. 4).
# Effect of peptide SEQ ID NO:145 addition on sequential batch cultures of C. beijerinckii NCIMB 8052 grown at 37° C. Spores of C. beijerinckii NCIMB 8052 were germinated and grown overnight at 37° C. under anaerobic conditions in YEPG medium that either contained 50 nM of peptide SEQ ID NO:145 or no added peptide. After about 24 h of growth, 10 μL of the untreated culture was transferred (transfer 1) to each of two flasks that contained 10 mL of YEPG with either no treatment or with 50 nM peptide SEQ ID NO:145. At the same time, 10 μL of the culture that was germinated in the presence of peptide SEQ ID NO:145 was also transferred to 10 mL of YEPG that contained 50 nM of peptide SEQ ID NO:145. Thereafter, 10 μL of each culture was transferred, at the same time, every 24-48 h to 10 mL of fresh YEPG that contained the same peptide treatment or no treatment. Each culture was stopped after 72 hours of incubation and optical density, pH and ceric ion reactive chemicals were measured. Addition of peptide SEQ ID NO:145 appeared to have no effect on endpoint measurements of the growth of C. beijerinckii NCIMB 8052 after germination or during sequential transfers of cultures at 37° C. (Table 18 and FIG. 10). All three cultures stopped growing at the second transfer.
substance,measurement,setting,value
"IRLIT (Derived from Clostridium beijerinckii SEQ ID NO: 141) [Peptide SEQ ID NO:145, pentapeptide from C. beijerinckii NCIMB 8052 locus Cbei_1065; chemically synthesized putative autoinducing peptide]",Effect on endpoint measurements of ceric ion reactive compounds,[1]; 37° C.,no apparent effect
same,Optical density of ceric ion reactive compounds measured at 500 nm,[1]; listed as SEQ ID NO: 145,−0.002
same,Optical density of ceric ion reactive compounds measured at 500 nm,[1]; listed as SEQ ID NO:145,no ceric ion reactive compounds
same,Optical density at 600 nm of culture broths,"[2]; 1 nM peptide, transfer 1, 96 h, 30° C.",2.086
same,Optical density at 600 nm of culture broths,"[2]; 1 nM peptide, transfer 2, 96 h, 30° C.",2.086
same,Optical density at 600 nm of culture broths,"[2]; 1 nM peptide, transfer 3, 96 h, 30° C.",2.106
same,Optical density at 600 nm of culture broths,"[2]; 1 nM peptide, transfer 4, 96 h, 30° C.",2.115
same,Optical density at 600 nm of culture broths,"[2]; 1 nM peptide, transfer 5, 96 h, 30° C.",2.090
same,Optical density at 600 nm of culture broths,"[2]; 1 nM peptide, transfer 6, 96 h, 30° C.",2.075
same,Optical density at 600 nm of culture broths,"[2]; 10 nM peptide, transfer 1, 96 h, 30° C.",2.080
same,Optical density at 600 nm of culture broths,"[2]; 10 nM peptide, transfer 2, 96 h, 30° C.",2.093
same,Optical density at 600 nm of culture broths,"[2]; 10 nM peptide, transfer 3, 96 h, 30° C.",2.078
same,Optical density at 600 nm of culture broths,"[2]; 10 nM peptide, transfer 4, 96 h, 30° C.",2.108
same,Optical density at 600 nm of culture broths,"[2]; 10 nM peptide, transfer 5, 96 h, 30° C.",2.069
same,Optical density at 600 nm of culture broths,"[2]; 10 nM peptide, transfer 6, 96 h, 30° C.",2.062
same,Optical density at 600 nm of culture broths,"[2]; 50 nM peptide added after germination, transfer 1, 72 h, 37° C.",1.313
same,Optical density at 600 nm of culture broths,"[2]; 50 nM peptide added after germination, transfer 2, 72 h, 37° C.",0.011
same,Effect on endpoint measurements of growth after germination or during sequential transfers,"[2]; 50 nM peptide, 37° C.",no effect
same,Effect on germination and growth (visual observations through the course of growth),"[2]; 50 nM peptide, 37° C.",repressive effect
same,Optical density at 600 nm of culture broths,"[2]; 50 nM peptide, transfer 1, 96 h, 30° C.",2.102
same,Optical density at 600 nm of culture broths,"[2]; 50 nM peptide, transfer 2, 96 h, 30° C.",2.023
same,Optical density at 600 nm of culture broths,"[2]; 50 nM peptide, transfer 3, 96 h, 30° C.",1.936
same,Optical density at 600 nm of culture broths,"[2]; 50 nM peptide, transfer 4, 96 h, 30° C.",2.061
same,Optical density at 600 nm of culture broths,"[2]; 50 nM peptide, transfer 5, 96 h, 30° C.",2.120
same,Optical density at 600 nm of culture broths,"[2]; 50 nM peptide, transfer 6, 96 h, 30° C.",2.046
same,Growth of treated cultures during incubation (data not shown),"[2]; 1-50 nM peptide, 96 h, 30° C.",slow the growth of the treated cultures during 96 h of incubation in a dose dependent manner
same,Optical density at 600 nm of culture broths,"[2]; 50-50: germinated and transferred in 50 nM peptide, transfer 1, 72 h, 37° C.",1.420
same,Optical density at 600 nm of culture broths,"[2]; 50-50: germinated and transferred in 50 nM peptide, transfer 2, 72 h, 37° C.",0.011
same,Optical density at 600 nm of culture broths,"[2]; 50-50: spores germinated in 50 nM peptide, transfer 0 (germinated culture), 72 h, 37° C.",1.158
same,Number of times that cultures could be transferred in comparison with an untreated culture,"[2]; through six culture transfers, 30° C.",did not affect
